# From PubChem BioAssay (NCI)
#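 96-well plates; 48 h exposure; 5 concentrations. Endpoints by linear interpolation between flanking doses. Not reached: highest tested concentration assigned. GI50 is the concentration that inhibits growth by half. The concentration for full growth arrest is given as TGI.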
# Columns and labels:
# Experiment in all cases: DTP human tumour cell line panel, 48 h
# HCC-2998 colon = test system: HCC-2998 colon
# A498 renal = test system: A498 renal
# UACC-62 melanoma = test system: UACC-62 melanoma
# CCRF-CEM leukemia = test system: CCRF-CEM leukemia
# MDA-MB-468 breast = test system: MDA-MB-468 breast
# SNB-19 CNS = test system: SNB-19 CNS
# NCI-H23 lung = test system: NCI-H23 lung
# HOP-62 NSCLC = test system: HOP-62 NSCLC
# MDA-MB-231 breast = test system: MDA-MB-231 breast
# SK-MEL-5 melanoma = test system: SK-MEL-5 melanoma
# M14 melanoma = test system: M14 melanoma
# HL-60(TB) leukemia = test system: HL-60(TB) leukemia
# RXF 393 renal = test system: RXF 393 renal
# NCI/ADR-RES ovarian = test system: NCI/ADR-RES ovarian
# BT-549 breast = test system: BT-549 breast
# UACC-257 melanoma = test system: UACC-257 melanoma
# SF-539 CNS = test system: SF-539 CNS
# SW-620 colon = test system: SW-620 colon
# EKVX NSCLC = test system: EKVX NSCLC
# K-562 leukemia = test system: K-562 leukemia
# SK-MEL-2 melanoma = test system: SK-MEL-2 melanoma
# CAKI-1 renal = test system: CAKI-1 renal
# MOLT-4 leukemia = test system: MOLT-4 leukemia
# SK-OV-3 ovarian = test system: SK-OV-3 ovarian
# HCT-116 colon = test system: HCT-116 colon
# KM12 colon = test system: KM12 colon
# LOX IMVI melanoma = test system: LOX IMVI melanoma
# COLO 205 colon = test system: COLO 205 colon
# OVCAR-3 ovarian = test system: OVCAR-3 ovarian
# OVCAR-8 ovarian = test system: OVCAR-8 ovarian
compound,measurement,setting,value
CC(=O)Nc1nc(-c2ccc(N3CCN(C)CC3)c(NS(=O)(=O)c3ccc(C(F)(F)F)cc3)c2)cs1,TGI,HCC-2998 colon,14.5 µM
same,GI50,A498 renal,6.64 µM
same,TGI,A498 renal,13.5 µM
same,GI50,UACC-62 melanoma,6.08 µM
same,TGI,UACC-62 melanoma,12.6 µM
same,GI50,CCRF-CEM leukemia,1.97 µM
same,TGI,CCRF-CEM leukemia,9.86 µM
same,GI50,MDA-MB-468 breast,2.04 µM
same,TGI,MDA-MB-468 breast,7.95 µM
same,GI50,SNB-19 CNS,7.82 µM
same,TGI,SNB-19 CNS,14.8 µM
same,GI50,NCI-H23 lung,8.11 µM
same,TGI,NCI-H23 lung,15.8 µM
same,GI50,HOP-62 NSCLC,9.06 µM
same,TGI,HOP-62 NSCLC,17.2 µM
same,GI50,MDA-MB-231 breast,5.78 µM
same,TGI,MDA-MB-231 breast,12.4 µM
same,GI50,SK-MEL-5 melanoma,6 µM
same,TGI,SK-MEL-5 melanoma,12.5 µM
same,GI50,M14 melanoma,7.25 µM
same,TGI,M14 melanoma,17.1 µM
same,GI50,HL-60(TB) leukemia,3.35 µM
same,TGI,HL-60(TB) leukemia,19.1 µM
same,GI50,RXF 393 renal,2.61 µM
same,TGI,RXF 393 renal,9.24 µM
same,GI50,NCI/ADR-RES ovarian,6.97 µM
same,TGI,NCI/ADR-RES ovarian,21.6 µM
same,GI50,BT-549 breast,5.83 µM
same,TGI,BT-549 breast,12.8 µM
same,GI50,UACC-257 melanoma,6.76 µM
same,TGI,UACC-257 melanoma,14 µM
same,GI50,SF-539 CNS,4.12 µM
same,TGI,SF-539 CNS,10.8 µM
same,GI50,SW-620 colon,3.21 µM
same,TGI,SW-620 colon,11.3 µM
same,GI50,EKVX NSCLC,7.41 µM
same,TGI,EKVX NSCLC,14.5 µM
same,GI50,K-562 leukemia,5.47 µM
same,TGI,K-562 leukemia,53 µM
same,GI50,SK-MEL-2 melanoma,7.27 µM
same,TGI,SK-MEL-2 melanoma,14.4 µM
same,GI50,CAKI-1 renal,3.91 µM
same,TGI,CAKI-1 renal,11 µM
same,GI50,MOLT-4 leukemia,5.34 µM
same,TGI,MOLT-4 leukemia,23.6 µM
same,GI50,SK-OV-3 ovarian,10 µM
same,TGI,SK-OV-3 ovarian,19.6 µM
same,GI50,HCT-116 colon,3.01 µM
same,TGI,HCT-116 colon,11.9 µM
same,GI50,KM12 colon,7.55 µM
same,TGI,KM12 colon,16.4 µM
same,GI50,LOX IMVI melanoma,2.46 µM
same,TGI,LOX IMVI melanoma,8.87 µM
same,GI50,COLO 205 colon,7.95 µM
same,TGI,COLO 205 colon,18.7 µM
same,GI50,OVCAR-3 ovarian,3.06 µM
same,TGI,OVCAR-3 ovarian,10.6 µM
same,GI50,OVCAR-8 ovarian,8.2 µM
same,TGI,OVCAR-8 ovarian,23.9 µM
